Results published in PMC12086609, “Characterization of the Structure and Function of the Photosynthetic RC–LH1 Core Supercomplex From Rhodospirillum rubrum” (Physiologia Plantarum, 2025).

What was measured:
[1] = target: T1, Rsp. rubrum RC–LH1 supercomplex (RC–LH1 monomer) (Rhodospirillum rubrum, UniProt P02947+P10717+Q2RQ23+Q2RQ26); assay: cryo-EM structure, […] Å; assay type: binding; details: native carotenoid of LH1, one per alpha-beta heterodimer (16)
T1 construct: gene pufL; native purification from phototrophic cells (beta-DDM, sucrose gradient); closed ring of 16 alpha-beta pairs around RC L, M, H; modelled alpha 45 and beta 44 residues

[2] = target: T1, Rsp. rubrum RC–LH1 supercomplex (RC–LH1 monomer); assay: cytochrome c2 oxidation at […] nm under […] nm light; assay type: biochemical; details: QB site of RC (L/M); 0-40 μM UQ2, 15 nM RC–LH1, 30 μM reduced horse-heart cytochrome c, HEPES pH 8.0, 0.01% β-DDM; apparent Km not determined
[3] = target: T2, Rba. sphaeroides WT RC–LH1 monomer (Cereibacter sphaeroides, UniProt P0C0Y8+P0C0Y9); assay: cytochrome c2 oxidation at […] nm under […] nm light; assay type: biochemical; details: QB site of RC (L/M); 0-40 μM UQ2, 15 nM RC–LH1, 30 μM reduced horse-heart cytochrome c, HEPES pH 8.0, 0.01% β-DDM; apparent Km not determined
T2 construct: gene pufL; native RC–LH1 monomer with open LH1 ring (contains PufX); with Reaction center protein H chain; Light-harvesting protein B-875 alpha chain (LH1 alpha); Light-harvesting protein B-875 beta chain (LH1 beta); Intrinsic membrane protein PufX

T1 sequence (P10717 2-276): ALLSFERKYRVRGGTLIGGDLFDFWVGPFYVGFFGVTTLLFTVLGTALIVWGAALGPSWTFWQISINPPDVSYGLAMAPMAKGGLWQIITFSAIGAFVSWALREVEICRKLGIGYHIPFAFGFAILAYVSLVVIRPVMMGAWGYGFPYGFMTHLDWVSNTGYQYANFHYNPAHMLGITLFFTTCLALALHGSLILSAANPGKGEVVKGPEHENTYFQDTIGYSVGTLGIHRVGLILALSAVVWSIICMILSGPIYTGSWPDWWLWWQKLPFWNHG
T1 sequence (Q2RQ26 1-306): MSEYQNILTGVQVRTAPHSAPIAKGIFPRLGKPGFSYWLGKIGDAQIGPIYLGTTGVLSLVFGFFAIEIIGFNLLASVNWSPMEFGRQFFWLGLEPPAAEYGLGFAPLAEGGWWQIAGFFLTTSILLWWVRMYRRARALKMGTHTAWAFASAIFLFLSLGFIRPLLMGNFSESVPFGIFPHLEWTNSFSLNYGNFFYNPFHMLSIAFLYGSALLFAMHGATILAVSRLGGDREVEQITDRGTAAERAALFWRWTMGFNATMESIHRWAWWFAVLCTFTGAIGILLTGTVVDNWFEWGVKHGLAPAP
T1 sequence (Q2RWS4 1-257 partner): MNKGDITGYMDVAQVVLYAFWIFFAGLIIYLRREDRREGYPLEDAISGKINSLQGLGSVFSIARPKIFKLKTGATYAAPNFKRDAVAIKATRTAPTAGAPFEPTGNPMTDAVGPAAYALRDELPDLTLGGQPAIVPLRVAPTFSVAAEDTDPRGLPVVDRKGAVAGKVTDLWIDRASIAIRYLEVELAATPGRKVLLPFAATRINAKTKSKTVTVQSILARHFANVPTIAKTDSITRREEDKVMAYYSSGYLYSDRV
T1 sequence (P02947 1-52): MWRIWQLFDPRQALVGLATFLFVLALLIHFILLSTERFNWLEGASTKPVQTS
T1 sequence (Q2RQ23 3-56): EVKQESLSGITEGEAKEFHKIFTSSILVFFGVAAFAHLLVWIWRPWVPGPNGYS

Structure (SMILES) | cryo-EM structure, 3.0 Å [1] | cytochrome c oxidation at 550 nm under 880 nm light [2] | cytochrome c2 oxidation at 550 nm under 880 nm light [3]
COC(C)(C)C/C=C/C(C)=C/C=C/C(C)=C/C=C/C(C)=C/C=C/C=C(C)/C=C/C=C(C)/C=C/C=C(C)/C=C/CC(C)(C)OC [spirilloxanthin] | The LH1 α‐polypeptide is light blue sky, the β‐polypeptide is pink, spirilloxanthin is green |  | 
COC1=C(OC)C(=O)C(C/C=C(\C)CCC=C(C)C)=C(C)C1=O [ubiquinone‐2] |  | maximum quinone/quinol exchange rate for Rsp. rubrum RC–LH1 monomer | open RC–LH1 monomer of Rba. sphaeroides WT
